The source of these data is patent US20230339863A1, “INDAZOLE DERIVATIVES AS CANNABINOID RECEPTOR PARTIAL AGONISTS” (RESEARCH TRIANGLE INSTITUTE, priority 2020, published 2023).

pEC50, pKi: −log10 of the molar value.

Test [1] has as its target T1, human CB2 (Homo sapiens (Human), UniProt P34972). Kind of test: In vitro cannabinoid receptor activity assay (calcium mobilization, FLIPR) in CHO cells expressing human CB2 and Gαq16. The conditions noted are these: for pEC50: CHO cells, hCB2, calcium fluorescence, read-out: hCB2 Ca EC50; for hCB2 Ca Span: percentage of the maximum CP55940 signal. The class given is cell-based. The procedure: (§1) In vitro cannabinoid receptor activity assay. Chinese Hamster Ovary (CHO) cells stably expressing either human CB1 or CB2 cDNA and the promiscuous G-protein Gαq16 were transferred to each well of a black Costar 96-well optical bottom plate (Corning Corporation). Each plate was incubated at 37° C. for 24 hr to confluence. The culture media was removed from the plates and cells were subsequently loaded with a fluorescent calcium probe (Calcium 5 dye, Molecular Devices) at a final loading concentration of 2 μM in a HBSS-based buffer containing 20 mM HEPES, 1% BSA and 10 μM Probenecid (Sigma) in a total volume of 225 μl. Cells were incubated at 37° C. for 1 hr and then stimulated with various concentrations of a test agent using a FLIPR Tetra plate-reader, which automatically added the agonist at 10× concentration to each well after reading baseline values for ˜17 sec. Agonist-mediated change in fluorescence (488 nm excitation, 525 nm emission) was monitored in each well at 1 sec intervals for 60 sec and reported for each well. Data were analyzed using Prism software (GraphPad). Non-linear regression analysis was performed to fit data and obtain maximum response (Emax), effective concentration for 50% response (EC50), correlation coefficient (r2) and other parameters. All experiments were performed 3-6 times to ensure reproducibility.
(§2) Reference is made to the following reference, hereby incorporated by reference with regard to such assay, Seltzman, et al., Peripherally Selective Cannabinoid 1 Receptor (CB1R) Agonists for the Treatment of Neuropathic Pain, J Med Chem. 2016 Aug. 25; 59 (16):7525-43. doi: 10.1021/acs.jmedchem.6b00516. Epub 2016 Aug. 10.

For test [2], the target named is T1, human CB2. Put plainly: In vitro binding affinity, [3H]CP-55,940 radioligand displacement, HEK cell membranes overexpressing human CB2. The following applies: [3H]CP-55,940 displacement, read-out: hCB2 Ki. How it is done:
(§3) In vitro binding affinity determination using radioligand displacement. Plasma membranes were isolated from HEK cells overexpressing either human CB1 or CB2. Binding was initiated with the addition of 40 μg of cell membrane proteins to assay tubes containing [3H]CP-55,940 (ca. 130 Ci/mmol), a test compound (for displacement studies), and a sufficient quantity of buffer (50 mM Tris-HCl, 1 mM EDTA, 3 mM MgCl2, 5 mg/mL BSA, pH 7.4) to bring the total incubation volume to 0.5 mL. Nonspecific binding was determined by the inclusion of 10 μM unlabeled CP-55,940. Following incubation at 30° C. for 1 h, binding was terminated by vacuum filtration through GF/C glass fiber filter plates. The filter plates were washed extensively and air-dried and sealed on the bottom. Liquid scintillate was added to the wells and the top sealed. After incubating the plates in cocktail for at least 2 h, the radioactivity present was determined by liquid scintillation spectrometry. Assays were done in duplicate, and results represent combined data from 3-6 experiments. Saturation and displacement data were analyzed by unweighted nonlinear regression of receptor binding data. For displacement studies, curve-fitting and IC50 calculation were done with GraphPad Prism (GraphPad Software, Inc., San Diego, CA).
(§4) Reference is made to the following reference, hereby incorporated by reference with regard to such assay, Zhang et al., Synthesis and biological evaluation of bivalent ligands for the cannabinoid 1 receptor, J Med Chem. 2010 Oct. 14; 53 (19):7048-60. doi: 10.1021/jm1006676.

Test [3] concerns the target T2, human CB1 (Homo sapiens (Human), UniProt P21554). Kind of test: In vitro cannabinoid receptor activity assay (calcium mobilization, FLIPR) in CHO cells expressing human CB1 and Gαq16. The conditions noted are these: for pEC50: CHO cells, hCB1, calcium fluorescence, read-out: hCB1 Ca EC50; for hCB1 Ca Span: percentage of the maximum CP55940 signal. The class given is cell-based. The procedure:
as §1, §2
In general terms: A change in cytosolic calcium serves as a functional read-out for many receptors and channels.

The target in test [4] is T2, human CB1. Kind of test: In vitro binding affinity, [3H]CP-55,940 radioligand displacement, HEK cell membranes overexpressing human CB1. The conditions noted are these: [3H]CP-55,940 displacement, read-out: hCB1 Ki. The procedure:
as §3, §4
(Loss of bound radioactivity is the signal in a displacement assay; it reports binding, not function.)

As for `CC(C)(NC(=O)c1nn(Cc2ccc(F)cc2F)c2ccccc12)c1cccc(C(N)=O)c1` [Example 13, N-[2-(3-Carbamoylphenyl)propan-2-yl]-1-[(2,4-difluorophenyl)methyl]-1H-indazole-3-carboxamide], at human CB2 [1], the pEC50 was 6.52 and the “hCB2 Ca Span” value is reported as 19%. Moreover, the pKi on human CB2 [2] is 7.57. Besides, at human CB1 [3], the pEC50 was 6.74 and the “hCB1 Ca Span” value amounted to 32%. Moreover, on human CB1 [4], the pKi is 7.74.
As for `CC(C)(NC(=O)c1nn(Cc2ccc(F)cc2)c2ccccc12)c1cccc(C(N)=O)c1` [Example 12, N-[2-(3-Carbamoylphenyl)propan-2-yl]-1-[(4-fluorophenyl)methyl]-1H-indazole-3-carboxamide], the pEC50 is 7.57 on human CB2 [1] and 7.68 on human CB1 [3]. For the same compound, the “hCB2 Ca Span” value on human CB2 [1] amounted to 41%. Also, the pKi at human CB2 [2] was 8.00; at human CB1 [4], 8.40. For the same compound, the “hCB1 Ca Span” value on human CB1 [3] worked out at 24%.
Take `CC(C)(NC(=O)c1nn(Cc2ccc(F)cc2)c2ccccc12)C1CCCN(CC(N)=O)C1` (stereo not drawn) [Example 30, N-{2-[1-(Carbamoylmethyl)piperidin-3-yl]propan-2-yl}-1-[(4-fluorophenyl)methyl]-1H-indazole-3-carboxamide]: on human CB2 [1], the pEC50 was 7.20 and the “hCB2 Ca Span” value stood at 12%. Moreover, the pKi on human CB2 [2] was 7.68. On human CB1 [3], the pEC50 was 6.48 and the “hCB1 Ca Span” value was 40%. At human CB1 [4], the negative-log Ki (pKi) is 7.32.
With `C[C@H](NC(=O)c1nn(Cc2ccc(F)cc2)c2ccccc12)c1cccc(C(N)=O)c1` [Example 11, N-[(1S)-1-(3-Carbamoylphenyl)ethyl]-1-[(4-fluorophenyl)methyl]-1H-indazole-3-carboxamide], on human CB2 [1], the negative-log EC50 (pEC50) is 7.30 and the “hCB2 Ca Span” value is given as 48%. For the same compound, the pKi at human CB2 [2] was 7.47. For the same compound, on human CB1 [3], the pEC50 is 7.57 and the “hCB1 Ca Span” value was determined as 86%. Further, the pKi at human CB1 [4] was 8.15.

Broadly, the pEC50 is −log10 of the EC50, conventionally taken in molar units. The term pKi denotes the negative decadic logarithm of the Ki, by convention in mol/L.
